Assay: Biodistribution study in normal C57BL/6 mice
Format: in vivo, mouse
Procedure: Biodistribution studies were also performed to discover the drug distribution within normal mice. 17-week-old male and female C57BL/6 mice were purchased to match the age of the imaging study group. [^18F]1 was intravenously injected into these mice (N = 4/time point), then they were sacrificed at 10, 30, and 60 min after the injection. Their major organs, including the brain, blood, lung, liver, stomach, heart, spleen, kidney, muscle, bone, large intestine, small intestine, aorta, liquinal lymph nodes (LN), interscapular BAT, and tail, were harvested. Their radioactivity was counted by an automated γ-counter. The biodistribution was calculated as an average of the percent injected dose per gram tissue (%ID/g tissue) where the counted radioactivity of each organ was divided by the weight of each tissue and the total radioactivity that circulated in the mouse body at the time of the euthanasia.
Seventeen-week-old male and female C57BL/6 mice were purchased to match the age of PET imaging mice. They were anesthetized in the anesthesia chamber using 3% isoflurane in oxygen and received 0.74–1.11 MBq of [^18F]1 in 100 μL of 5–10% EtOH in saline containing 0.5% sodium ascorbate. The injected mice were returned to their cages and free until the time of the study. At 10, 30, and 60 min after the [^18F]1 administration, each mouse (N = 4/time point) was anesthetized again and euthanized by cervical dislocation followed by cardiac puncture to take a blood sample. Then, the following organs were harvested: the brain, blood, heart, liver, lung, stomach, large intestine, small intestine, spleen, kidney, bone, muscle, liquinal LN, interscapular BAT, and tail. The radioactivity of each organ was counted by a PerkinElmer Wallac 1480 Wizard^3 Gamma Counter (Waltham, MA). The whole radioactivity that went into the circulation of the mouse was calculated by subtracting the residual radioactivity in the tail from the injected radioactivity. Therefore, the biodistribution was calculated as an average of the percent injected dose per gram of tissue (%ID/g tissue) by dividing the measured radioactivity by the whole radioactivity that actually went into the body and the weight of the tissue.

[1] = 10 min p.i., i.v., C57BL/6 mice

## CC[C@H]1CN(c2ncc(-c3nnco3)cc2Cl)CCN1C1CCN(Cc2ccc(Cl)cc2[18F])CC1 [[^18F]1]
[1]
  uptake in BAT: 15 % ID/g
  uptake in aorta: 13 % ID/g
  uptake in heart: 12 % ID/g
  uptake in kidney: 22 % ID/g
  uptake in liver: 12 % ID/g
  uptake in lung: 27 % ID/g
30 min p.i.
  uptake remaining relative to 10 min p.i. (lung, kidney, BAT, aorta, heart): ~ 60%
30 min p.i., i.v., C57BL/6 mice
  uptake in liver: 22 % ID/g
60 min p.i.
  uptake remaining relative to 10 min p.i. (lung, kidney, BAT, aorta, heart): ~ 40%
